Assay results published in ChEMBL document CHEMBL4480448, “In Situ Ring Contraction and Transformation of the Rhizoxin Macrocycle through an Abiotic Pathway” (J Nat Prod, 2019).
Activity calls are given as the source filed them.

Tests used:
Format in all cases: functional, cell-based
Hep293TT = test: Cytotoxicity against human Hep293TT cells assessed as reduction in cell viability at 2 uM after 48 hrs by SRB assay
Homo sapiens [1] = species: Homo sapiens; test: Cytotoxicity against human SJCRH30 cells assessed as reduction in cell viability at 2 uM after 48 hrs by SRB assay
TC-32 = test: Cytotoxicity against human TC32 cells assessed as reduction in cell viability at 2 uM after 48 hrs by SRB assay
Homo sapiens [2] = species: Homo sapiens; test: Cytotoxicity against human D283 cells assessed as reduction in cell viability at 2 uM after 48 hrs by SRB assay
A673 = test: Cytotoxicity against human A673 cells assessed as reduction in cell viability at 2 uM after 48 hrs by SRB assay
SK-ES1 = test: Cytotoxicity against human SK-ES-1 cells assessed as reduction in cell viability at 2 uM after 48 hrs by SRB assay

Measured: Activity

CO[C@@H](/C(C)=C/C=C/C(C)=C/c1coc(C)n1)[C@@H](C)[C@@H]1C[C@H](O)[C@@](C)(O)/C=C/[C@H](O)[C@@H](C)[C@H]2C[C@H](CC(=O)O2)C[C@@H]2O[C@H]2C(=O)O1
inactive: all assays above

CO[C@@H](/C(C)=C/C=C/C(C)=C/c1coc(C)n1)[C@@H](C)[C@@H]1C[C@H](O)[C@@](C)(O)[C@H](O)/C=C/[C@@H](C)[C@H]2C[C@H](CC(=O)O2)C[C@@H]2O[C@H]2C(=O)O1
inactive: all assays above

CO[C@@H](/C(C)=C/C=C/C(C)=C/c1coc(C)n1)[C@@H](C)[C@@H]1C[C@H](O)[C@@](C)(O)[C@@H](O)/C=C/[C@@H](C)[C@H]2C[C@H](CC(=O)O2)C[C@@H]2O[C@H]2C(=O)O1
inactive: all assays above

COC(=O)C[C@H]1C[C@@H](O)[C@H](C)[C@@H](O)/C=C/[C@](C)(O)[C@@H](O)C[C@@H]([C@H](C)[C@@H](OC)/C(C)=C/C=C/C(C)=C/c2coc(C)n2)OC(=O)[C@@H]2O[C@H]2C1
inactive: all assays above

CO[C@@H](/C(C)=C/C=C/C(C)=C/c1coc(C)n1)[C@@H](C)[C@@H]1C[C@H](O)[C@H](C(C)=O)/C=C/[C@@H](C)[C@H]2C[C@H](CC(=O)O2)C[C@@H]2O[C@H]2C(=O)O1
inactive: all assays above
